Test results as given in US5457106A, “Pyridine derivatives, their production and use” (Takeda Chemical Industries, Ltd., priority 1991, dated 1995).
Counter-ions that a name gives are not always drawn. Each block holds one compound with its values, some of them ahead of it.

What was measured:
cyclooxygenase = target: T1, cyclooxygenase (Rattus norvegicus, UniProt Q63921); assay: Cyclooxygenase inhibitory activity (HHT formation from arachidonic acid in rat platelet-rich plasma); assay type: cell-based, rat (Jcl:wistar)
T1 construct: from tissue; host or cells: platelets in platelet-rich plasma from rat abdominal aorta blood (Jcl:wistar, male)
T1 sequence (Q63921 27-602): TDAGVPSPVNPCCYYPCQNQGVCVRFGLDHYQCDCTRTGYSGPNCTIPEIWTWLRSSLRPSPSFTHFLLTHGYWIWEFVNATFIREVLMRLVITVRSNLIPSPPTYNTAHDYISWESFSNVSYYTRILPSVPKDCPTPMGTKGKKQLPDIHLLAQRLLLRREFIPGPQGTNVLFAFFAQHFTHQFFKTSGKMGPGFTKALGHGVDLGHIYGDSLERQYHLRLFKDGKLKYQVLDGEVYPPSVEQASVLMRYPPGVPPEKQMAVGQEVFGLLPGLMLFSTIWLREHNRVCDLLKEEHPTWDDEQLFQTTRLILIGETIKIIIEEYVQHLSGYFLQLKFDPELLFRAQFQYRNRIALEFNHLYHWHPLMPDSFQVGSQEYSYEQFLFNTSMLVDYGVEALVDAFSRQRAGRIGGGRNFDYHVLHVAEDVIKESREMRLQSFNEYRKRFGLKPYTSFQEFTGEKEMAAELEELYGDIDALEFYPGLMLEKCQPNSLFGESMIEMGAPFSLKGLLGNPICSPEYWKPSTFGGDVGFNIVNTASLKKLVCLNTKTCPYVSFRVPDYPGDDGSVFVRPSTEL

[1] = system: Mouse phenylquinone writhing; assay: Mouse phenylquinone writhing inhibitory activity; assay type: in vivo, mouse (Slc: ICR); conditions: 50 mg/kg, orally; for inhibition in vivo at 50 mg/kg: Mus musculus, po, 20 min, read-out: Inhibitory percentage (phenylquinone writhing)
Experimental: Mouse Phenylquinone Writhing Inhibitory Activity A Slc: ICR male mouse (4 weeks, weight 17 to 24 g) was used. A test compound suspended in 5% gum arabic solution was administered orally. After 30 minutes, 0.1 ml/10 g body weight of 0.02% phenylquinone solution in water (dissolved by the aid of 5% ethanol) was injected intraperitoneally, and writhing and stretching responses of individual animals were measured for 20 minutes [Siegmund, E., Cadmus, R. and Lu, G.; Proc. Soc. exp. Biol. Med. 95, (1957)].

[2] = system: ART (antigen-responding T-cell); assay: In vitro ART (antigen-responding T-cell) proliferation test; assay type: cell-based, Lewis rat; conditions: for inhibition at 1 µM / inhibition at 10 µM: Rattus norvegicus, T-cell, read-out: % Inhibition of ART growth

IC50 (cyclooxygenase): 1.1 µM
SMILES: CCCCCCCCCC(=O)NCCCCSc1ccncc1 [Example 8]

IC50 (cyclooxygenase): 2.2 µM
SMILES: CCCCCCCCCC(=O)NCCCCCSc1ccncc1 [Example 9]

IC50 (cyclooxygenase): 2.2 µM
SMILES: CCCCCCCCCC(=O)NCCCCCCSc1ccncc1 [Example 10]

IC50 (cyclooxygenase): 13.2 µM
SMILES: CCCC(=O)NCCCSc1ccncc1 [Example 14, 4-[3-(butyrylamino)propylthio]pyridine]

IC50 (cyclooxygenase): 5.1 µM
SMILES: CCCCCC(=O)NCCCSc1ccncc1 [Example 15, 4-[3-(hexanoylamino)propylthio]pyridine]

IC50 (cyclooxygenase): 12.9 µM
SMILES: CCCCCCCC(=O)NCCCSc1ccncc1 [Example 16]

IC50 (cyclooxygenase): 7 µM
SMILES: CCCCCCCCCCCCCC(=O)NCCCSc1ccncc1 [Example 18, 4-[3-(myristoylamino)propylthio] pyridine]

IC50 (cyclooxygenase): 3.5 µM
SMILES: O=C(NCCCSc1ccncc1)c1ccc(-c2ccccc2)cc1 [Example 26, 4-[3-(4-phenylbenzoylamino)propylthio]pyridine hydrochloride]
inhibition in vivo at 50 mg/kg [1]: 67%

IC50 (cyclooxygenase): 5.4 µM
SMILES: O=C(NCCCSc1ccncc1)c1cccc2ccccc12 [Example 27, 4-[3-(1-naphthoylamino)propylthio]pyridine hydrochloride]

IC50 (cyclooxygenase): 6.6 µM
SMILES: COc1ccc(C(=O)NCCCSc2ccncc2)cc1 [Example 30, 4-[3-(4-methoxybenzoylamino)propylthio]pyridine]

IC50 (cyclooxygenase): 2.9 µM
SMILES: CCCCc1ccc(C(=O)NCCCSc2ccncc2)cc1 [Example 34, 4-[3-(4-n-butylbenzoylamino)propylthio]pyridine hydrochloride]
inhibition at 1 µM ([2]; 1 μM): 31%
inhibition at 10 µM ([2]; 10 μM): 47%

IC50 (cyclooxygenase): 6 µM
SMILES: O=C(NCCCSc1ccncc1)c1ccccc1O [Example 36, 4-[3-(salicyloylamino)propylthio]pyridine hydrochloride]

IC50 (cyclooxygenase): 4.4 µM
SMILES: O=C(CCCc1ccccc1)NCCCSc1ccncc1 [Example 39, 4-[3-(4-phenyl-n-butyrylamino)propylthio]pyridine]

IC50 (cyclooxygenase): 3.3 µM
SMILES: O=C(/C=C/c1cnc2ccccc2c1)NCCCSc1ccncc1 [Example 44, 4-[3-(3-quinolineacryloylamino)propylthio]pyridine]

IC50 (cyclooxygenase): 6.6 µM
SMILES: Cn1cccc1C(=O)NCCCSc1ccncc1 [Example 45, 4-[3-(1-methyl-2-pyrrolecarbonylamino)propylthio]pyridine]

IC50 (cyclooxygenase): 8.9 µM
SMILES: CN(CCCSc1ccncc1)C(=O)c1cccs1 [Example 51, 4-[3-(N-methyl-2-thenoylamino)propylthio]pyridine]
inhibition in vivo at 50 mg/kg [1]: 72%

IC50 (cyclooxygenase): 4.2 µM
SMILES: Cc1ccsc1C(=O)NCCCSc1ccncc1 [Example 60, 4-[3-(3-methylthenoylamino)propylthio]pyridine]
inhibition in vivo at 50 mg/kg [1]: 41%

IC50 (cyclooxygenase): 11 µM
SMILES: O=C(NCCCOc1ccccn1)c1cccs1 [Example 61, 2-[3-(2-thenoylamino)propyloxy]pyridine]

IC50 (cyclooxygenase): 3.7 µM
SMILES: O=C(NCCCCSc1ccncc1)c1ccccc1CO [Example 106, 4-[4-(2-hydroxymethylbenzoyl)aminobutylthio]pyridine]

IC50 (cyclooxygenase): 4.3 µM
SMILES: O=C1c2ccccc2C(O)N1CCCCSc1ccncc1 (stereo not drawn) [Example 107, 4-[4-(3-hydroxyisoindolin-1-on-2-yl)butylthio]pyridine]

IC50 (cyclooxygenase): 4.6 µM
SMILES: O=C(N(CCSc1ccncc1)Cc1ccccc1)C(F)(F)F [Example 119, 4-[2-(N-benzyl-N-trifluoroacetylamino)ethylthio]pyridine]
inhibition at 1 µM ([2]; 1 μM): 13%
inhibition at 10 µM ([2]; 10 μM): 43%

IC50 (cyclooxygenase): 3.8 µM
SMILES: O=C(NCCSc1ccncc1)c1cccs1 [Example 122, 4-(2-thenoylaminoethylthio)pyridine]

IC50 (cyclooxygenase): 3.1 µM
SMILES: O=C(NCCCCOc1ccncc1)c1ccccc1CO [Example 148, 4-[4-(2-hydroxymethylbenzoyl)aminobutyloxy]pyridine]

IC50 (cyclooxygenase): 6 µM
SMILES: O=C1SC(=Cc2ccccc2)C(=O)N1CCCSc1ccncc1 [Example 154, 4-[3-(5-benzylidene-2,4-thiazolidinedione)propylthio]pyridine]
inhibition at 1 µM ([2]; 1 μM): 16%
inhibition at 10 µM ([2]; 10 μM): 27%

IC50 (cyclooxygenase): 12 µM
SMILES: O=C1c2ccccc2S(=O)(=O)N1CCCCSc1ccncc1 [Example 166, 4-(4-saccharinbutylthio)pyridine]

IC50 (cyclooxygenase): 3.6 µM
SMILES: O=C(NCCSc1ccncc1)c1ccccc1O [Example 168, 4-[2-(2-hydroxybenzoyl)aminoethylthio]pyridine]

Second part, the compound before the results:

SMILES: CCCCCCCCCC(=O)NCCSc1ccncc1 [Example 7]
IC50 (cyclooxygenase): 4.4 µM

SMILES: O=C(NCCCSc1ccncc1)C1CCCCC1 [Example 23, 4-[3-(cyclohexanoylamino)propylthio]pyridine hydrochloride]
inhibition in vivo at 50 mg/kg [1]: 58%

SMILES: O=C(NCCCSc1cccnc1)c1cccs1 [Example 48, 3-[3-(thenoylamino)propylthio]pyridine]
inhibition in vivo at 50 mg/kg [1]: 31%

SMILES: O=C1c2ccccc2C(=O)N1COc1ccccn1 [Example 67, 2-(phthalimidomethyloxy)pyridine]
inhibition in vivo at 50 mg/kg [1]: 49%

SMILES: CC(C)(C)C(=O)Nc1ncccc1SCN1C(=O)c2ccccc2C1=O [Example 74, 3-(phthalimidomethylthio)-2-pivaloylaminopyridine]
inhibition in vivo at 50 mg/kg [1]: 51%
inhibition at 1 µM ([2]; 1 μM): -3%
inhibition at 10 µM ([2]; 10 μM): 52%

SMILES: CC(=O)N(CCCSc1ccncc1)Cc1ccccc1 [Example 75, 4-[3-(N-benzyl-N-acetylamino)propylthio]pyridine]
inhibition in vivo at 50 mg/kg [1]: 54%
inhibition at 1 µM ([2]; 1 μM): 5%
inhibition at 10 µM ([2]; 10 μM): 45%

SMILES: CC(=O)N(CCCSc1ccncc1)Cc1ccccn1 [Example 79, 4-[3-(N-2-pyridylmethyl-N-acetylamino)propylthio]pyridine]
inhibition in vivo at 50 mg/kg [1]: 48%

SMILES: Cl.Cl.O=C(c1ccccc1)N(CCCSc1ccncc1)Cc1ccccn1 [Example 82, 4-[3-(N-2-pyridylmethyl-N-benzoylamino)propylthio]pyridine dihydrochloride]
Inhibitory percentage (phenylquinone writhing) [1]: 47%

SMILES: CC(C)(C)C(=O)NCCCOc1ccncc1 [Example 86, 4-(3-pivaloylaminopropyloxy) pyridine]
inhibition in vivo at 50 mg/kg [1]: 51%

SMILES: O=C(NCCCOc1ccncc1)c1cccnc1 [Example 87, 4-(3-nicotinoylaminopropyloxy)pyridine]
inhibition in vivo at 50 mg/kg [1]: 47%

SMILES: CC(=O)N(CCCSc1ccncc1)Cc1cccs1.Cl [Example 91, 4-[3-(N-(2-thienylmethyl)-N-acetylamino)-propylthio]pyridine hydrochloride]
Inhibitory percentage (phenylquinone writhing) [1]: 52%
% Inhibition of ART growth ([2]; 1 μM): 44%
% Inhibition of ART growth ([2]; 10 μM): 42%

SMILES: O=C(c1ccccc1)N(CCCSc1ccncc1)Cc1cccs1 [Example 92, 4-[3-(N-(2-thienylmethyl)-N-benzoylamino)propylthio]pyridine]
Inhibitory percentage (phenylquinone writhing) [1]: 74%

SMILES: O=C1[C@H]2CC=CC[C@H]2C(=O)N1CSc1ccncc1 [Example 96, 4-[cis-(1,2,3,6-tetrahydrophthalimido)methylthio]pyridine]
IC50 (cyclooxygenase): 13 µM

SMILES: O=C1c2ccccc2C(O)N1CCCOc1ccncc1 (stereo not drawn) [Example 99, 4-[3-(3-hydroxyisoindolin-1-on-2-yl)propyloxy]pyridine]
IC50 (cyclooxygenase): 12 µM

SMILES: O=C(NCCCOc1ccncc1)c1cc2ccccc2s1 [Example 115, 4-[3-(thianaphthene-2-carbonyl)aminopropyloxy]pyridine hydrochloride]
inhibition at 1 µM ([2]; 1 μM): 18%
inhibition at 10 µM ([2]; 10 μM): 53%

SMILES: O=C(c1ccccc1)N(CCOc1ccncc1)Cc1ccccc1 [Example 117, 4-[2-(N-benzyl-N-benzoyl)aminoethyloxy]pyridine]
% Inhibition of ART growth ([2]; 1 μM): 3%
inhibition at 10 µM ([2]; 10 μM): 39%

SMILES: O=C(c1ccccc1)N(CCSc1ccncc1)Cc1ccccc1 [Example 120, 4-[2-(N-benzyl-N-benzoylamino)ethylthio]pyridine]
inhibition at 1 µM ([2]; 1 μM): 16%
inhibition at 10 µM ([2]; 10 μM): 74%

SMILES: CC1(C)NC(=O)N(CCCCSc2ccncc2)C1=O [Example 140, 5,5-dimethyl-3-[4-(4-pyridylthio)butyl]hydantoin]
inhibition at 1 µM ([2]; 1 μM): -9%
inhibition at 10 µM ([2]; 10 μM): -25%

SMILES: COc1ccc(C=C2SC(=O)N(CCCCSc3ccncc3)C2=O)cc1 [Example 152, 4-[4-[5-(4-methoxybenzylidene)-2,4-thiazolidinedione]butylthio]pyridine]
inhibition at 1 µM ([2]; 1 μM): -20%
inhibition at 10 µM ([2]; 10 μM): 68%

SMILES: O=C1CSC(=O)N1CCCCSc1ccncc1 [Example 160, 4-[4-(2,4-thiazolidinedione)butylthio]pyridine]
inhibition at 1 µM ([2]; 1 μM): -14%
inhibition at 10 µM ([2]; 10 μM): 33%

SMILES: O=C1SC(=Cc2ccccc2)C(=O)N1CCCCSc1ccccn1 [Example 164, 2-[4-(5-benzylidene-2,4-thiazolidinedione)butylthio]pyridine]
inhibition at 1 µM ([2]; 1 μM): 3%
inhibition at 10 µM ([2]; 10 μM): -54%
